{
  "source": "patent US20240226066A1",
  "about": "“CARDIOPROTECTION BY AUTOPHAGY INDUCTION AND METABOLIC REPROGRAMMING” (UNIVERSITE PARIS-SACLAY, priority 2021, published 2024)",
  "key": {"hERG potassium channel": {"target": "T1, hERG potassium channel (Homo sapiens, UniProt Q12809)", "T1 construct": "Eurofins", "T1 sequence (Q12809 whole entry)": "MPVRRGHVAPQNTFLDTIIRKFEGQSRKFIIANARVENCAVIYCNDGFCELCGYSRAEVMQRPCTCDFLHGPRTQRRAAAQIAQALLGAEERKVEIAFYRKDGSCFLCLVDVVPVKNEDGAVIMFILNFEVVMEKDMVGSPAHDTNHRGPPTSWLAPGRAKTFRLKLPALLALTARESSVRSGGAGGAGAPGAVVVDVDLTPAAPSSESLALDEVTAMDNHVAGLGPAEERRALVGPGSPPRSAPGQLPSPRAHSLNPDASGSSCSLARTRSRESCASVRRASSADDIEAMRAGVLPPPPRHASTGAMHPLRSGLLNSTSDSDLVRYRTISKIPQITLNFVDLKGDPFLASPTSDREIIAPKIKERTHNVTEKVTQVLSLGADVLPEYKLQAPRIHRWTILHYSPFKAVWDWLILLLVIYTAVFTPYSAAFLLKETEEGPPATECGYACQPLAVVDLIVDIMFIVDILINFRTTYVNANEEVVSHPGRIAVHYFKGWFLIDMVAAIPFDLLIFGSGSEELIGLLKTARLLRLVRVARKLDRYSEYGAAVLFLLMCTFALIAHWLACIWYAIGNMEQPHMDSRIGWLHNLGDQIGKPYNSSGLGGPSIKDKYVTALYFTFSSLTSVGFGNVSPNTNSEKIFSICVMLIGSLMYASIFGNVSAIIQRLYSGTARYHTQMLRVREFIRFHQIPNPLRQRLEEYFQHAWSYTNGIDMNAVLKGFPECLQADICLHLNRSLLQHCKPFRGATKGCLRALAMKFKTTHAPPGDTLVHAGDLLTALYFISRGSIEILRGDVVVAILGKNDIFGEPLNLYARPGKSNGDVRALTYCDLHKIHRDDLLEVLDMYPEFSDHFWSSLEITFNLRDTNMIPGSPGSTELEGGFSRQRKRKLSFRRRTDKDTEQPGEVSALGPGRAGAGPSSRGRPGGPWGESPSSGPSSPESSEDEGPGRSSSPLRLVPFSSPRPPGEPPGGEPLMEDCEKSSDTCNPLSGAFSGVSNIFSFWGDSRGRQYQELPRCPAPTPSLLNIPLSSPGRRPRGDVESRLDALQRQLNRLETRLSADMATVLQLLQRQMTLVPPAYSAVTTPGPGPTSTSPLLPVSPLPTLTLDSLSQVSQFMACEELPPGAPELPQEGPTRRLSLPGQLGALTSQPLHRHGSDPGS", "assay": "hERG channel binding assay ([3H]dofetilide displacement)", "conditions": "for inhibition at 10 µM: human, probe [3H]dofetilide", "method": "The evaluation of the binding of the compounds to the human hERG potassium channel was carried out as described previously (Eurofins).\nSince the blocking of the human potassium channel hERG channel may be responsible for cardiac fibrillation leading to cardiac arrest and death of the patient, the binding of the 3 molecules SG6163F, VP331 and LOPA87 to this receptor was evaluated."}, "RNVCs [1]": {"tested_on": "RNVCs", "assay": "Mitochondrial network and cell volume by confocal microscopy (Mitotracker, calcein-AM, IMARIS)", "format": "cell-based, rat", "conditions": "1 and 10 μM, 6 h", "method": "FIG. 6. Effects on mitochondrial dynamics by fluorescence microscopy The RNVCs were treated with 1 μM hits (FIG. 6A) and 10 μM hits (FIG. 6B) for 6 h and the mitochondrial network was stained with 200 nM of Mitotracker. The mitochondrial network and individual mitochondria were then analyzed using a Leica confocal microscope and IMARIS software. Data are presented as mean±SEM with single-factor ANOVA, and multiple Sidak comparisons. *, p<0.05, **, p<0.01, ***, p<0.001 with respect to DMSO.\nFIG. 11: following the treatment of the RNVCs with the compounds as indicated, the cell volume was stained with 4 μM of calcein-AM. The cell volume was then analyzed using the IMARIS software.\nConfocal microscopy. On day 0, 4×10^5 neonatal cardiomyocytes were plated overnight on laminin-coated 35 mm culture dishes (10 μg/ml). On day 1, the cells were treated with various compounds at 1 or 10 μM for 6 hours. The cells were incubated with Mitotracker Red 580 at 200 nM for 20 minutes at 37° C., then 4 μM of calcein (Calcein AM, Life Technologies, St Aubin, France) for 10 minutes at 37° C. The images were acquired with a Leica confocal microscope (SP5) (Mannheim, Germany). The mitochondrial network and the 3D model of cell volume were reconstructed using the IMARIS software (Bitplane Company, Zurich, Switzerland); therefore the cell volume, mitochondrial number and volume were analyzed.\nDue to the importance of mitochondria and reactive oxygen species (ROS) levels in the fate of cardiomyocyte cells, the hypothesis that the compounds could impact the mitochondrial network was explored. Following treatment of the RNVCs with the compounds tested, the mitochondrial network was stained with 200 nM of Mitotracker and the cell volume with 4 μM of calcein-AM. Thus, the mitochondrial network and the individual mitochondria were then analyzed using the IMARIS software."}, "[2]": {"tested_on": "AMP-activated protein kinase (AMPK)", "assay": "Western blot of AMPK phosphorylation in RNVCs", "format": "cell-based, rat", "method": "FIG. 8D: AMPK alpha2 and phospho-AMPK protein levels in RNVCs. Data are presented as mean±SEM with single-factor ANOVA, and multiple Sidak comparisons. *, p<0.05, **, p<0.01, ***, p<0.001 with respect to DMSO.\nThe H9C2 cells and RNVCs were detached in LB containing: 50 mM Tris, 150 mM NaCl, 1 mM EDTA, 0.5% deoxycholate, 1% Triton X 100, 0.1% SDS (pH 8.0). The cells were collected and placed on ice for 30 minutes. The cells were then centrifuged at 2000 g for 20 minutes at for 4° C. The supernatant was transferred to a new tube and stored on ice. The protein concentration was determined by BCA assay. The protein samples were diluted with sample buffer (2× Laemmli, Sigma), mixed, and heated for 5 minutes at 95° C. The samples were then loaded into a precast gel with a gradient of 4 to 20% and migrated for 15 minutes at 300 V. After migration, the membrane and the gel were placed on the base of a Trans Blot Turbo cassette (Bio Rad) and the proteins were transferred for 3 minutes at 2.5 V. After transfer, the membrane was blocked with 5% milk in PBS-Tween and incubated with a primary antibody diluted in PBS-Tween containing 5% w/v milk at 4° C. with gentle stirring, overnight. […] The images were recorded with a gel imaging system (Bio Rad). […]\nNext, the energy metabolism was analyzed in real time using the Seahorse technology in H9C2 cells."}, "[3]": {"tested_on": "A549 lung cancer cell line", "assay": "Influence of hits on growth of A549 cancer cells (total LDH after lysis)", "format": "cell-based", "conditions": "48 h", "method": "The cells were cultured for 6 h in the presence or absence of the hits, and then for 42 h. Finally, the cells were lysed with lysis buffer and the amount of LDH was measured to evaluate the total cell growth.\n(§1) A colorimetric assay was used to measure lactate dehydrogenase (LDH), a cytosolic enzyme which is released during permeabilization of the plasma membrane (Promega G1780). The assay was performed using cell culture supernatants obtained from H9C2 or RNVC (rat neonatal ventricular myocyte) cells and lysis buffer (LB) was used as a positive control for total cell lysis. The LDH release was measured by absorbance reading at 490 nm (Infinite spectrofluorimeter, Tecan).\n(§2) The effect of the compounds was then evaluated on primary rat neonatal ventricular cardiomyocytes (RNVCs) using the LDH test and propidium iodide staining. […] The absence of proliferative effects of the compounds was also evaluated on the A549 lung cancer cell line for 48 h (FIG. 2C)."}, "RNVCs [4]": {"tested_on": "RNVCs", "assay": "Mitochondrial ROS production with MitoSOX fluorescent probe", "format": "cell-based, rat", "conditions": "1 μM, 6 h", "method": "FIG. 12: The RNVCs were treated with 0.1% DMSO, 3 μM rapamycin, 1 μM digitoxigenin, 1 μM digoxin, 1 μM minaprin, 1 μM VP331, 1 μM LOPA87, 10 μM SG6163F for 6 h, then the ROS production was stained with the MitoSOX fluorescent probe.\nThe RNVCs were treated with 0.01% DMSO, 3 μM rapamycin, […], 1 μM digoxin, 1 μM minaprine, 1 μM VP331, 1 μM LOPA87, 10 μM SG6163F in a serum-free cell culture medium for 6 hours. The contents (50 μg) of a MitoSOX™ mitochondrial superoxide indicator vial (ThermoFisher, M36008) were dissolved in 13 μl dimethyl sulfoxide (DMSO) to prepare a 5 mM MitoSOX™ reagent stock solution. Next, the 5 mM MitoSOX™ reagent stock solution in PBS was diluted to prepare a 5 μM working solution of MitoSOX™ reagent. After treatment, the cells were rinsed twice with hot PBS and then incubated with a MitoSOX reagent working solution for 10 minutes at 37° C. The cells were gently rinsed three times with hot PBS. Red fluorescence was detected with a Leica confocal microscope. Nuclear fluorescence was suppressed and mitochondrial fluorescence intensity was measured using ImageJ software.\nROSs are produced or accumulated as a by-product of mitochondrial activity metabolism. Thus, the ROSs may be a consequence of mitochondrial function or may reflect a defect in the mitochondrial antioxidant system."}, "[5]": {"tested_on": "primary rat neonatal ventricular cardiomyocytes (RNVCs)", "assay": "Protection of RNVCs against camptothecin-induced apoptosis (LDH release, propidium iodide)", "format": "cell-based", "conditions": "camptothecin 10 μM", "method": "Neonatal rat cardiomyocytes were isolated as described previously (Wang et al., Cell Death Dis, 2016, 7:e2198).\nas §1\nPropidium iodide, a non-permeable fluorescent DNA marker, was used to measure membrane integrity. Propidium iodide at 10 μM was added to the culture medium and a fluorescence reading was performed (for […]: 530 nm; em: 620 nm), the LB was used as a positive control for total cell lysis.\nas §2"}},
  "note": "Where two headings read alike, the source gives them in different places.",
  "data": [
    {"smiles": "CN(C)c1ccc(-c2cc(=O)[nH]c(-c3ccccc3)n2)cc1", "note": "[LOPA87]", "values": [
      {"measurement": "inhibition at 10 µM", "setting": "hERG potassium channel; inhibition of tritiated dofetilide binding, only values >50% considered effective, read-out: % inhibit 1st assay", "value": 14.6, "unit": "%"},
      {"measurement": "inhibition at 10 µM", "setting": "hERG potassium channel; inhibition of tritiated dofetilide binding, only values >50% considered effective, read-out: % inhibit 2nd assay", "value": 5.3, "unit": "%"},
      {"measurement": "inhibition at 10 µM", "setting": "hERG potassium channel; mean of two independent measurements, read-out: % inhibit Mean", "value": 10, "unit": "%"},
      {"measurement": "binding to the hERG channel", "setting": "hERG potassium channel; inhibition of specific binding of [3H]dofetilide in vitro", "value": "negligible"},
      {"measurement": "effect on the mitochondrial network", "setting": "RNVCs [1]", "value": "no effect"},
      {"measurement": "number of mitochondria", "setting": "RNVCs [1]", "value": "no effect"},
      {"measurement": "AMPK phosphorylation compared with the DMSO control", "setting": "[2]", "value": 1.5, "unit": "fold"},
      {"measurement": "effect on A549 cell growth", "setting": "[3]", "value": "no proliferative effect"},
      {"measurement": "local level of mitochondrial superoxide anion", "setting": "RNVCs [4]", "value": "induced an elevation"},
      {"measurement": "inhibition of apoptosis of RNVCs", "setting": "[5]", "value": "did not protect"}
    ]}
  ]
}
